According to US10357481B2 (MERCK SHARP & DOHME CORP., priority 2015, dated 2019):

Target: T1, human PDE2A1 (Homo sapiens, UniProt O00408)
T1 construct: GST; purchased BPS Bioscience (San Diego, Calif.) 60020; host or cells: insect cells
Experiment: IMAP FP PDE selectivity panel, human PDE2A1
Format: biochemical
Settings: Lab B; read-out: Human PDE2 Ki (nM) Lab B
Outline: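 Human PDE2A1 tested alongside PDE1–11 by IMAP fluorescence polarization at room temperature. Substrate was 50 nM FAM-cAMP plus 1000 nM cGMP, buffer pH 7.2 with MgCl2 and DTT, enzyme set for 20% conversion. Ten 3-fold compound dilutions; 60 min reaction, then IMAP binding solution, 1 h, parallel/perpendicular fluorescence read.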

T1 sequence (O00408 1-920 isoform O00408-2): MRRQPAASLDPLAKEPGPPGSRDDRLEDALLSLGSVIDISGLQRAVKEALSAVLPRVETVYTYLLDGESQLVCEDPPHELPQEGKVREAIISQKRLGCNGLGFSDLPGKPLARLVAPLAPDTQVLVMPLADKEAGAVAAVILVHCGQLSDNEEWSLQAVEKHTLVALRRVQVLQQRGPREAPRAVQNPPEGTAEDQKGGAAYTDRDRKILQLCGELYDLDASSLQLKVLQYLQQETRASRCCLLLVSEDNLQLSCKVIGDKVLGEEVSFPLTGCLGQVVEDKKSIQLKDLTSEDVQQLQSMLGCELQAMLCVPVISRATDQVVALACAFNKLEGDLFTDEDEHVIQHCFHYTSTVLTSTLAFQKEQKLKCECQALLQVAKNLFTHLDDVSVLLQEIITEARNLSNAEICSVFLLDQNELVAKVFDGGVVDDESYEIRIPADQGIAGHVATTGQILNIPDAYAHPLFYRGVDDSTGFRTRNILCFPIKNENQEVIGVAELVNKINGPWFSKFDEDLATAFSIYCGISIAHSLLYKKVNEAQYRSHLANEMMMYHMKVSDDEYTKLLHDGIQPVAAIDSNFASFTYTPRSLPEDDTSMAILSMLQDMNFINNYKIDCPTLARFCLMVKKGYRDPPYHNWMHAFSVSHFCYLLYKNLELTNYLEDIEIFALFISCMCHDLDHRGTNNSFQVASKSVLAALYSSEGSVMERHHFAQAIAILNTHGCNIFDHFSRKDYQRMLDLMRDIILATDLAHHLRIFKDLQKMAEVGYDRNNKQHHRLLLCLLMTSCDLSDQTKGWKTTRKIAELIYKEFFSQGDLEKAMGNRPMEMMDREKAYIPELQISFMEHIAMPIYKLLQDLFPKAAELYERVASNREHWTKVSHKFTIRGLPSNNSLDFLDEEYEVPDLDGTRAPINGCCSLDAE

| SMILES | Ki [nM] |
| --- | --- |
| FCc1cc(NC2(c3ccc(C(F)(F)F)c(F)c3)CC2)n2ncnc2n1 [Example 81, 5-(Fluoromethyl)-N-{1-[3-fluoro-4-(trifluoromethyl)phenyl]cyclopropyl}[1,2,4]triazolo[1,5-a]pyrimidin-7-amine] | 31 |
| Fc1cc(C2(Nc3cc(C(F)(F)F)nc4ncnn34)CC2)ccc1C(F)(F)F [Example 82, N-{1-[3-Fluoro-4-(trifluoromethyl)phenyl]cyclopropyl}-5-(trifluoromethyl)-[1,2,4]triazolo[1,5-a]pyrimidin-7-amine] | 10 |
| Cc1nc2ncnn2c(N[C@H](C)c2ccc(C(F)(F)F)cc2)c1C [Example 85, 5,6-Dimethyl-N-{(1R)-1-[4-(trifluoromethyl)phenyl]ethyl}[1,2,4]triazolo[1,5-a]pyrimidin-7-amine] | ~1160 |
| Cc1nc2ncnn2c(N[C@@H](C)c2ccc(C(F)(F)F)cc2)c1C [Example 86, 5,6-Dimethyl-N-{(1S)-1-[4-(trifluoromethyl)phenyl]ethyl}[1,2,4]triazolo[1,5-a]pyrimidin-7-amine] | ~1750 |
| Cc1nc2ncnn2c(NC2(c3ccc(C(F)(F)F)c(F)c3)CC2)c1C [Example 87, N-{1-[3-Fluoro-4-(trifluoromethyl)phenyl]cyclopropyl}-5,6-dimethyl[1,2,4]triazolo[1,5-a]pyrimidin-7-amine] | 132 |
| Cc1cc(NC(CO)c2ccc(C(F)(F)F)cc2)n2ncnc2n1 (stereo not shown) [Example 88, 2-[(5-Methyl[1,2,4]triazolo[1,5-a]pyrimidin-7-yl)amino]-2-[4-(trifluoromethyl)phenyl]ethanol] | 736 |
| Cc1cc(N[C@@H](c2ccc(C(F)(F)F)cc2)[C@@H](C)O)n2ncnc2n1 [Example 89, (1S,2R)-1-[(5-Methyl[1,2,4]triazolo[1,5-a]pyrimidin-7-yl)amino]-1-[4-(trifluoromethyl)phenyl]propan-2-ol] | 82 |
| Cc1cc(N[C@@H](c2ccc(C(F)(F)F)cc2)[C@H](C)O)n2ncnc2n1 [Example 90, (1S,2S)-1-[(5-Methyl[1,2,4]triazolo[1,5-a]pyrimidin-7-yl)amino]-1-[4-(trifluoromethyl)phenyl]propan-2-ol] | ~1790 |
| Cc1cc(N[C@@H](c2ccc(OC(F)(F)F)cc2F)C(C)(C)O)n2ncnc2n1 [Example 93, (1S)-1-[2-Fluoro-4-(trifluoromethoxy)phenyl]-2-methyl-[(5-methyl-[1,2,4]triazolo[1,5-a]pyrimidin-7-yl)amino]propan-2-ol] | 742 |
| Cc1cc(N[C@@H](c2ccc(C(F)(F)F)cc2)C(C)(C)O)n2ncnc2n1 [Example 94, (1S)-2-Methyl-1-[(5-methyl [1,2,4]triazolo[1,5-a]pyrimidin-7-yl)amino]-1-[4-(trifluoromethyl)phenyl]propan-2-ol] | 17 |
| Cc1cc(N[C@H](c2ccc(C(F)(F)F)cc2)C(C)(C)O)n2ncnc2n1 [Example 95, (1R)-2-Methyl-1-[(5-methyl [1,2,4]triazolo[1,5-a]pyrimidin-7-yl)amino]-1-[4-(trifluoromethyl)phenyl]propan-2-ol] | > 2960 |
| Cc1cc(N[C@@H](c2ccc(OC(F)(F)F)cc2)C(C)(C)O)n2ncnc2n1 [Example 96, (1S)-2-Methyl-1-[(5-methyl [1,2,4]triazolo[1,5-a]pyrimidin-7-yl)amino]-1-[4-(trifluoromethoxy)phenyl]propan-2-ol] | 15 |
| Cc1cc(N[C@H](c2ccc(OC(F)(F)F)cc2)C(C)(C)O)n2ncnc2n1 [Example 97, (1R)-2-Methyl-1-[(5-methyl [1,2,4]triazolo[1,5-a]pyrimidin-7-yl)amino]-1-[4-(trifluoromethoxy)phenyl]propan-2-ol] | > 2960 |
| Cc1cc(N[C@H](c2ccc(C(F)(F)F)c(F)c2)C(C)(C)O)n2ncnc2n1 [Example 99, (1R)-1-[3-Fluoro-4-(trifluoromethyl)phenyl]-2-methyl-1-[(5-methyl [1,2,4]triazolo[1,5-a]pyrimidin-7-yl)amino]propan-2-ol] | 555 |
| Cc1cc(N[C@@H](c2ccc(OC(F)(F)F)cc2Cl)C(C)(C)O)n2ncnc2n1 [Example 100, (1S)-1-[2-Chloro-4-(trifluoromethoxy)phenyl]-2-methyl-1-[(5-methyl[1,2,4]triazolo[1,5-a]pyrimidin-7-yl)amino]propan-2-ol] | 4.3 |
| Cc1cc(N[C@H](c2ccc(OC(F)(F)F)cc2Cl)C(C)(C)O)n2ncnc2n1 [Example 101, (1R)-1-[2-Chloro-4-(trifluoromethoxy)phenyl]-2-methyl-1-[(5-methyl[1,2,4]triazolo[1,5-a]pyrimidin-7-yl)amino]propan-2-ol] | 27 |
| Cc1cc(N[C@@H](c2ccc(OC(F)(F)F)c(Cl)c2)C(C)(C)O)n2ncnc2n1 [Example 102, (1S)-1-[3-Chloro-4-(trifluoromethoxy)phenyl]-2-methyl-1-[(5-methyl[1,2,4]triazolo[1,5-a]pyrimidin-7-yl)amino]propan-2-ol] | 14 |

| SMILES | Ki [nM] |
| --- | --- |
| Cc1cc(N[C@H](c2ccc(OC(F)(F)F)c(Cl)c2)C(C)(C)O)n2ncnc2n1 [Example 103, (1R)-1-[3-Chloro-4-(trifluoromethoxy)phenyl]-2-methyl-1-[(5-methyl[1,2,4]triazolo[1,5-a]pyrimidin-7-yl)amino]propan-2-ol] | 34 |
| Cc1cc(N[C@@H](c2ccc(F)c(OC(F)(F)F)c2)C(C)(C)O)n2ncnc2n1 [Example 130, (1S)-1-[4-Fluoro-3-(trifluoro-methoxy)phenyl]-2-methyl-1-[(5-methyl[1,2,4]triazolo[1,5-a]pyrimidin-7-yl)amino]propan-2-ol] | 2290 |
| Cc1cc(N[C@H](c2ccc(F)c(OC(F)(F)F)c2)C(C)(C)O)n2ncnc2n1 [Example 131, (1R)-1-[4-Fluoro-3-(trifluoro-methoxy)phenyl]-2-methyl-1-[(5-methyl[1,2,4]triazolo[1,5-a]pyrimidin-7-yl)amino]propan-2-ol] | > 2960 |
| Cc1cc(N[C@H](CC(C)(C)O)c2ccc(C(F)(F)F)c(F)c2)n2ncnc2n1 [Example 152, (4R)-4-[3-Fluoro-4-(trifluoromethyl)phenyl]-2-methyl-4-[(5-methyl[1,2,4]triazolo[1,5-a]pyrimidin-7-yl)amino]butan-2-ol] | 766 |
| Cc1cc(N[C@@H](CC(C)(C)O)c2ccc(C(F)(F)F)c(F)c2)n2ncnc2n1 [Example 153, (4S)-4-[3-Fluoro-4-(trifluoromethyl)phenyl]-2-methyl-4-[(5-methyl[1,2,4]triazolo[1,5-a]pyrimidin-7-yl)amino]butan-2-ol] | > 2960 |
| Cc1cc(N[C@](C)(c2ccc(OC(F)(F)F)cc2)C(C)(C)O)n2ncnc2n1 [Example 154, (3R)-2-Methyl-3-[(5-methyl[1,2,4]triazolo[1,5-a]pyrimidin-7-yl)amino]-3-[4-(trifluoromethoxy)phenyl]butan-2-ol] | > 2960 |
| Cc1cc(N[C@@](C)(c2ccc(OC(F)(F)F)cc2)C(C)(C)O)n2ncnc2n1 [Example 155, (3S)-2-Methyl-3-[(5-methyl[1,2,4]triazolo[1,5-a]pyrimidin-7-yl)amino]-3-[4-(trifluoromethoxy)phenyl]butan-2-ol] | 525 |
| Cc1cc(N[C@@H](c2ccc(C(F)(F)F)c(F)c2)C(C)(C)C)n2nc(CF)nc2n1 [Example 191, 2-(Fluoromethyl)-N-{(1R)-1-[3-fluoro-4-(trifluoromethyl)phenyl]-2,2-dimethylpropyl}-5-methyl[1,2,4]triazolo[1,5-a]pyrimidin-7-amine] | 67 |
| Cc1cc(NC2(c3ccc(C(F)(F)F)c(F)c3)CC2)n2nc(C)nc2n1 [Example 192, N-(1-(3-Fluoro-4-(trifluoromethyl)phenyl)cyclopropyl)-2,5-dimethyl-[1,2,4]triazolo [1,5-a]pyrimidin-7-amine] | 91 |
| CCc1nc2nc(C)cc(NC3(c4ccc(C(F)(F)F)c(F)c4)CC3)n2n1 [Example 193, 2-Ethyl-N-(1-(3-fluoro-4-(trifluoromethyl)phenyl)cyclopropyl)-5-methyl-[1,2,4]triazolo [1,5-a]pyrimidin-7-amine] | 142 |
| CCCc1nc2nc(C)cc(NC3(c4ccc(C(F)(F)F)c(F)c4)CC3)n2n1 [Example 194, N-(1-(3-Fluoro-4-(trifluoromethyl)phenyl)cyclopropyl)-5-methyl-2-propyl-[1,2,4]triazolo [1,5-a]pyrimidin-7-amine] | 113 |
| Cc1cc(NC2(c3ccc(C(F)(F)F)c(F)c3)CC2)n2nc(C3CC3)nc2n1 [Example 195, 2-Cyclopropyl-N-(1-(3-fluoro-4-(trifluoromethyl)phenyl)cyclopropyl)-5-methyl-[1,2,4]triazolo [1,5-a]pyrimidin-7-amine] | 144 |
| Cc1cc(NC2(c3ccc(C(F)(F)F)c(F)c3)CC2)n2nc(CO)nc2n1 [Example 196, (7-(1-(3-Fluoro-4-(trifluoromethyl)phenyl)cyclopropylamino)-5-methyl-[1,2,4]triazolo [1,5-a]pyrimidin-2-yl)methanol] | 321 |
| Cc1cc(NC2(c3ccc(C(F)(F)F)c(F)c3)CC2)n2nc(CF)nc2n1 [Example 197, N-(1-(3-Fluoro-4-(trifluoromethyl)phenyl)cyclopropyl)-2-(fluoromethyl)-5-methyl-[1,2,4]triazolo [1,5-a]pyrimidin-7-amine] | 80 |
| Cc1cc(NC2(c3ccc(C(F)(F)F)c(F)c3)COC2)n2ncnc2n1 [Example 198, N-(3-(3-Fluoro-4-(trifluoromethyl)phenyl)oxetan-3-yl)-5-methyl-[1,2,4]triazolo [1,5-a]pyrimidin-7-amine] | 83 |
| Cc1cc(NC2(c3ccc(C(F)(F)F)cc3)COC2)n2ncnc2n1 [Example 199, 5-Methyl-N-(3-(4-(trifluoromethyl)phenyl)oxetan-3-yl)-[1,2,4]triazolo [1,5-a]pyrimidin-7-amine] | 167 |
| Cc1cc(NC2(c3cccc(C(F)(F)F)c3F)COC2)n2ncnc2n1 [Example 200, N-(3-(2-Fluoro-3-(trifluoromethyl)phenyl)oxetan-3-yl)-5-methyl-[1,2,4]triazolo [1,5-a]pyrimidin-7-amine] | > 2960 |
